Measured values: patent publication US12552766B2, “Pesticidally active azole amide compounds” (SYNGENTA CROP PROTECTION AG, priority 2019, dated 2026)

How the values were obtained:
Assay type in all cases: in vivo
[1] = system: Spodoptera littoralis (Egyptian Cotton Leaf Worm); assay: Example B9: Spodoptera littoralis, spray on cotton leaf discs; conditions: foliar, 72 h, application rate of 200 ppm, L1 larvae, 3 days after infestation, read-out: control in at least one of the three categories (mortality, anti-feedant effect, or growth inhibition)
Experimental: Cotton leaf discs were placed onto agar in 24-well microtiter plates and sprayed with aqueous test solutions prepared from 10′000 ppm DMSO stock solutions. After drying the leaf discs were infested with five L1 larvae. The samples were assessed for mortality, anti-feeding effect, and growth inhibition in comparison to untreated samples 3 days after infestation. Control of Spodoptera littoralis by a test sample is given when at least one of the categories mortality, anti-feedant effect, and growth inhibition is higher than the untreated sample.

[2] = system: Plutella xylostella (Diamondback Moth); assay: Example B13: Plutella xylostella, artificial diet, 96-well; conditions: 216 h, application rate of 500 ppm, eggs/L1 larvae, 9 days after infestation
Experimental: 96-well microtiter plates containing artificial diet were treated with aqueous test solutions, prepared from 10′000 ppm DMSO stock solutions, by a liquid handling robot. After drying, eggs (˜30 per well) were infested onto a netted lid which was suspended above the diet. The eggs hatch and L1 larvae move down to the diet. The samples were assessed for mortality 9 days after infestation.

[3] = system: Plutella xylostella (Diamond Back Moth); assay: Example B5: Plutella xylostella, artificial diet, 24-well; conditions: 192 h, application rate of 200 ppm, eggs, 8 days after infestation, read-out: control in at least one of the two categories (mortality or growth inhibition)
Experimental: 24-well microtiter plates with artificial diet were treated with aqueous test solutions prepared from 10′000 ppm DMSO stock solutions by pipetting. After drying, Plutella eggs were pipetted through a plastic stencil onto a gel blotting paper and the plate was closed with it. The samples were assessed for mortality and growth inhibition in comparison to untreated samples 8 days after infestation.

[4] = system: Diabrotica Balteata (Corn Root Worm); assay: Example B1: Diabrotica balteata, spray on maize sprouts; conditions: 96 h, application rate of 200 ppm, L2 larvae, 4 days after infestation, read-out: control in at least one of the two categories (mortality or growth inhibition)
Experimental: Maize sprouts placed onto an agar layer in 24-well microtiter plates were treated with aqueous test solutions prepared from 10′000 ppm DMSO stock solutions by spraying. After drying, the plates were infested with L2 larvae (6 to 10 per well). The samples were assessed for mortality and growth inhibition in comparison to untreated samples 4 days after infestation.

[5] = system: Chilo suppressalis (Striped Rice Stemborer); assay: Example B4: Chilo suppressalis, artificial diet; conditions: 144 h, application rate of 200 ppm, L2 larvae, 6 days after infestation, read-out: control in at least one of the three categories (mortality, anti-feedant effect, or growth inhibition)
Experimental: 24-well microtiter plates with artificial diet were treated with aqueous test solutions prepared from 10′000 ppm DMSO stock solutions by pipetting. After drying, the plates were infested with L2 larvae (6-8 per well). The samples were assessed for mortality, anti-feeding effect, and growth inhibition in comparison to untreated samples 6 days after infestation. Control of Chilo suppressalis by a test sample is given when at least one of the categories mortality, anti-feedant effect, and growth inhibition is higher than the untreated sample.

[6] = system: Euschistus heros (Neotropical Brown Stink Bug); assay: Example B2: Euschistus heros, spray on soybean leaves; conditions: 120 h, application rate of 200 ppm, N2 nymphs, 5 days after infestation, read-out: control in at least one of the two categories (mortality or growth inhibition)
Experimental: Soybean leaves on agar in 24-well microtiter plates were sprayed with aqueous test solutions prepared from 10′000 ppm DMSO stock solutions. After drying the leaves were infested with N2 nymphs. The samples were assessed for mortality and growth inhibition in comparison to untreated samples 5 days after infestation.

CC(NC(=O)c1cc(OCC(F)(F)F)cc(C(F)(F)F)c1)c1nc(Br)nn1-c1ncc(OCC(F)F)cn1 (stereo not drawn) [Compound P19, N-[1-[5-bromo-2-[5-(2,2-difluoroethoxy)pyrimidin-2-yl]-1,2,4-triazol-3-yl]ethyl]-3-(2,2,2-trifluoroethoxy)-5-(trifluoromethyl) benzamide]
≥ 80%: percent control (mortality, anti-feedant effect or growth inhibition) at 200 ppm [1] | mortality at 500 ppm [2] | percent control (mortality or growth inhibition) at 200 ppm [3] | percent control (mortality or growth inhibition) at 200 ppm [4] | percent control (mortality, anti-feedant effect or growth inhibition) at 200 ppm [5]

CC(NC(=O)c1cc(OCC(F)(F)F)cc(C(F)(F)F)c1)c1nc(Br)nn1-c1ccc(C#N)cn1 (stereo not drawn) [Compound P21, N-[1-[5-bromo-2-(5-cyano-2-pyridyl)-1,2,4-triazol-3-yl]ethyl]-3-(2,2,2-trifluoroethoxy)-5-(trifluoromethyl) benzamide]
≥ 80%: percent control (mortality, anti-feedant effect or growth inhibition) at 200 ppm [1] | mortality at 500 ppm [2] | percent control (mortality or growth inhibition) at 200 ppm [3] | percent control (mortality or growth inhibition) at 200 ppm [4] | percent control (mortality, anti-feedant effect or growth inhibition) at 200 ppm [5]

CC(NC(=O)c1cc(Cl)cc(C(F)(F)F)c1)c1nc(Br)nn1-c1ccc(OC(F)F)cn1 (stereo not drawn) [Compound P26, N-[1-[5-bromo-2-[5-(difluoromethoxy)-2-pyridyl]-1,2,4-triazol-3-yl]ethyl]-3-chloro-5-(trifluoromethyl) benzamide]
≥ 80%: percent control (mortality, anti-feedant effect or growth inhibition) at 200 ppm [1] | percent control (mortality or growth inhibition) at 200 ppm [6] | percent control (mortality or growth inhibition) at 200 ppm [3] | percent control (mortality or growth inhibition) at 200 ppm [4] | percent control (mortality, anti-feedant effect or growth inhibition) at 200 ppm [5]

CC(NC(=O)c1cc(Cl)cc(C(F)(F)F)c1)c1nc(Br)nn1-c1ncc(OCC(F)F)cn1 (stereo not drawn) [Compound P27, N-[1-[5-bromo-2-[5-(2,2-difluoroethoxy)pyrimidin-2-yl]-1,2,4-triazol-3-yl]ethyl]-3-chloro-5-(trifluoromethyl) benzamide]
≥ 80%: percent control (mortality, anti-feedant effect or growth inhibition) at 200 ppm [1] | mortality at 500 ppm [2] | percent control (mortality or growth inhibition) at 200 ppm [3] | percent control (mortality or growth inhibition) at 200 ppm [4] | percent control (mortality, anti-feedant effect or growth inhibition) at 200 ppm [5]

CC(NC(=O)c1cc(C(F)F)cc(C(F)(F)F)c1)c1nc(Br)nn1-c1ncc(OC(F)F)cn1 (stereo not drawn) [Compound P28, N-[1-[5-bromo-2-[5-(difluoromethoxy)pyrimidin-2-yl]-1,2,4-triazol-3-yl]ethyl]-3-(difluoromethyl)-5-(trifluoromethyl) benzamide]
≥ 80%: percent control (mortality, anti-feedant effect or growth inhibition) at 200 ppm [1] | mortality at 500 ppm [2] | percent control (mortality or growth inhibition) at 200 ppm [3] | percent control (mortality or growth inhibition) at 200 ppm [4] | percent control (mortality, anti-feedant effect or growth inhibition) at 200 ppm [5]

CC(NC(=O)c1cc(Cl)cc(C(F)(F)F)c1)c1nc(Br)nn1-c1ncc(OC(F)F)cn1 (stereo not drawn) [Compound P29, N-[1-[5-bromo-2-[5-(difluoromethoxy)pyrimidin-2-yl]-1,2,4-triazol-3-yl]ethyl]-3-chloro-5-(trifluoromethyl) benzamide]
≥ 80%: percent control (mortality, anti-feedant effect or growth inhibition) at 200 ppm [1] | mortality at 500 ppm [2] | percent control (mortality or growth inhibition) at 200 ppm [3] | percent control (mortality or growth inhibition) at 200 ppm [4] | percent control (mortality, anti-feedant effect or growth inhibition) at 200 ppm [5]

CC(NC(=O)c1cc(Br)cc(C(F)(F)F)c1)c1nc(Br)nn1-c1ccc(C#N)cn1 (stereo not drawn) [Compound P30, 3-bromo-N-[1-[5-bromo-2-(5-cyano-2-pyridyl)-1,2,4-triazol-3-yl]ethyl]-5-(trifluoromethyl) benzamide]
≥ 80%: percent control (mortality, anti-feedant effect or growth inhibition) at 200 ppm [1] | mortality at 500 ppm [2] | percent control (mortality or growth inhibition) at 200 ppm [3] | percent control (mortality or growth inhibition) at 200 ppm [4] | percent control (mortality, anti-feedant effect or growth inhibition) at 200 ppm [5]

CC(NC(=O)c1cc(Cl)cc(C(F)(F)F)c1)c1nc(Br)nn1-c1ccc(C#N)cn1 (stereo not drawn) [Compound P31, N-[1-[5-bromo-2-(5-cyano-2-pyridyl)-1,2,4-triazol-3-yl]ethyl]-3-chloro-5-(trifluoromethyl) benzamide]
≥ 80%: percent control (mortality, anti-feedant effect or growth inhibition) at 200 ppm [1] | mortality at 500 ppm [2] | percent control (mortality or growth inhibition) at 200 ppm [3] | percent control (mortality or growth inhibition) at 200 ppm [4] | percent control (mortality, anti-feedant effect or growth inhibition) at 200 ppm [5]

CC(NC(=O)c1cc(Br)cc(C(F)(F)F)c1)c1nc(Br)nn1-c1ncc(OCC(F)(F)F)cn1 (stereo not drawn) [Compound P41, 3-bromo-N-[1-[5-bromo-2-[5-(2,2,2-trifluoroethoxy)pyrimidin-2-yl]-1,2,4-triazol-3-yl]ethyl]-5-(trifluoromethyl) benzamide]
≥ 80%: percent control (mortality, anti-feedant effect or growth inhibition) at 200 ppm [1] | mortality at 500 ppm [2] | percent control (mortality or growth inhibition) at 200 ppm [3] | percent control (mortality or growth inhibition) at 200 ppm [4] | percent control (mortality, anti-feedant effect or growth inhibition) at 200 ppm [5]

CC(NC(=O)c1cc(C(F)F)cc(C(F)(F)F)c1)c1nc(Br)nn1-c1ncc(OCC(F)(F)F)cn1 (stereo not drawn) [Compound P42, N-[1-[5-bromo-2-[5-(2,2,2-trifluoroethoxy)pyrimidin-2-yl]-1,2,4-triazol-3-yl]ethyl]-3-(difluoromethyl)-5-(trifluoromethyl) benzamide]
≥ 80%: percent control (mortality, anti-feedant effect or growth inhibition) at 200 ppm [1] | mortality at 500 ppm [2] | percent control (mortality or growth inhibition) at 200 ppm [3] | percent control (mortality or growth inhibition) at 200 ppm [4] | percent control (mortality, anti-feedant effect or growth inhibition) at 200 ppm [5]

CC(NC(=O)c1cc(C(F)(F)F)cc(C(F)(F)F)c1)c1nc(Br)nn1-c1ncc(OCC(F)(F)F)cn1 (stereo not drawn) [Compound P44, N-[1-[5-bromo-2-[5-(2,2,2-trifluoroethoxy)pyrimidin-2-yl]-1,2,4-triazol-3-yl]ethyl]-3,5-bis(trifluoromethyl) benzamide]
≥ 80%: percent control (mortality, anti-feedant effect or growth inhibition) at 200 ppm [1] | mortality at 500 ppm [2] | percent control (mortality or growth inhibition) at 200 ppm [3] | percent control (mortality or growth inhibition) at 200 ppm [4] | percent control (mortality, anti-feedant effect or growth inhibition) at 200 ppm [5]

CC(NC(=O)c1cc(OC(F)F)cc(C(F)(F)F)c1)c1nc(Br)nn1-c1ncc(OCC(F)(F)F)cn1 (stereo not drawn) [Compound P45]
≥ 80%: percent control (mortality, anti-feedant effect or growth inhibition) at 200 ppm [1] | mortality at 500 ppm [2] | percent control (mortality or growth inhibition) at 200 ppm [3] | percent control (mortality or growth inhibition) at 200 ppm [4] | percent control (mortality, anti-feedant effect or growth inhibition) at 200 ppm [5]

CC(NC(=O)c1cc(OCC(F)(F)F)cc(C(F)(F)F)c1)c1nc(Br)nn1-c1ncc(OCC(F)(F)F)cn1 (stereo not drawn) [Compound P46, N-[1-[5-bromo-2-[5-(2,2,2-trifluoroethoxy)pyrimidin-2-yl]-1,2,4-triazol-3-yl]ethyl]-3-(2,2,2-trifluoroethoxy)-5-(trifluoromethyl) benzamide]
≥ 80%: percent control (mortality, anti-feedant effect or growth inhibition) at 200 ppm [1] | mortality at 500 ppm [2] | percent control (mortality or growth inhibition) at 200 ppm [3] | percent control (mortality or growth inhibition) at 200 ppm [4] | percent control (mortality, anti-feedant effect or growth inhibition) at 200 ppm [5]

CC(NC(=O)c1cc(Cl)cc(C(F)(F)F)c1)c1nc(Br)nn1-c1ccc(OCC(F)F)cn1 (stereo not drawn) [Compound P49, N-[1-[5-bromo-2-[5-(2,2-difluoroethoxy)-2-pyridyl]-1,2,4-triazol-3-yl]ethyl]-3-chloro-5-(trifluoromethyl) benzamide]
≥ 80%: percent control (mortality, anti-feedant effect or growth inhibition) at 200 ppm [1] | mortality at 500 ppm [2] | percent control (mortality or growth inhibition) at 200 ppm [3] | percent control (mortality or growth inhibition) at 200 ppm [4] | percent control (mortality, anti-feedant effect or growth inhibition) at 200 ppm [5]

CC(=O)c1nc(C(C)NC(=O)c2cc(C(F)(F)F)cc(C(F)(F)F)c2)n(-c2ccc(C#N)cn2)n1 (stereo not drawn) [Compound P57, N-[1-[5-acetyl-2-(5-cyano-2-pyridyl)-1,2,4-triazol-3-yl]ethyl]-3,5-bis(trifluoromethyl) benzamide]
≥ 80%: percent control (mortality, anti-feedant effect or growth inhibition) at 200 ppm [1] | mortality at 500 ppm [2] | percent control (mortality or growth inhibition) at 200 ppm [3] | percent control (mortality or growth inhibition) at 200 ppm [4] | percent control (mortality, anti-feedant effect or growth inhibition) at 200 ppm [5]
